Reference: US11464777B2, “Pharmaceutical composition for the treatment of pulmonary arterial hypertension” (Actelion Pharmaceuticals Ltd, priority 2018, dated 2022)

Key:
BCRP transporters = target: T1, BCRP transporters (Homo sapiens, UniProt Q9UNQ0); assay: Effect on pharmacokinetics of rosuvastatin (BCRP transporters); format: in vivo; settings: macitentan 10 mg per day o.d.
T1 construct: BCRP is an efflux pump located in the gut, liver canalicular membrane, and kidney; from tissue; host or cells: gut, liver, kidney of dosed subjects (in vivo)
T1 sequence (Q9UNQ0 1-655): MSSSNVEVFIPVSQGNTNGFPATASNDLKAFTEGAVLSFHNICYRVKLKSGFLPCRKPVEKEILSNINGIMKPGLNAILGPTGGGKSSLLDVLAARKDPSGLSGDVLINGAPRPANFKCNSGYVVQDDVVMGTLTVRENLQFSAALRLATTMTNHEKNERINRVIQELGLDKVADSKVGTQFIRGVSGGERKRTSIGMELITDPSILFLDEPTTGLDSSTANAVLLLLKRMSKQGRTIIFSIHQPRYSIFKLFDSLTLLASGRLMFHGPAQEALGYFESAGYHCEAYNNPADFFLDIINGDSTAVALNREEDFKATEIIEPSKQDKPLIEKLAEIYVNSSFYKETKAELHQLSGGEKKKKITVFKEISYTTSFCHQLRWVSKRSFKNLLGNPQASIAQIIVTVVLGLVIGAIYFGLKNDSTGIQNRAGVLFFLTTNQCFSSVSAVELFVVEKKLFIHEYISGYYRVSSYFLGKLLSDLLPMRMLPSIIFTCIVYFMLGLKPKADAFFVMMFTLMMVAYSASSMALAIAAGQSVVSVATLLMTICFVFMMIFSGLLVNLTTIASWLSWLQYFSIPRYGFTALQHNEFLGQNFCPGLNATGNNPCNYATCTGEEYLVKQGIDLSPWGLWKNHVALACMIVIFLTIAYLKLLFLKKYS
Text: BCRP is an efflux pump located in the gut, liver canalicular membrane, and kidney, and is exposed to intracellular drug concentrations in the liver and the kidney.

human PXR = target: T2, human PXR (Homo sapiens, UniProt O75469); assay: Activation of human PXR; format: cell-based
T2 sequence (O75469 1-434): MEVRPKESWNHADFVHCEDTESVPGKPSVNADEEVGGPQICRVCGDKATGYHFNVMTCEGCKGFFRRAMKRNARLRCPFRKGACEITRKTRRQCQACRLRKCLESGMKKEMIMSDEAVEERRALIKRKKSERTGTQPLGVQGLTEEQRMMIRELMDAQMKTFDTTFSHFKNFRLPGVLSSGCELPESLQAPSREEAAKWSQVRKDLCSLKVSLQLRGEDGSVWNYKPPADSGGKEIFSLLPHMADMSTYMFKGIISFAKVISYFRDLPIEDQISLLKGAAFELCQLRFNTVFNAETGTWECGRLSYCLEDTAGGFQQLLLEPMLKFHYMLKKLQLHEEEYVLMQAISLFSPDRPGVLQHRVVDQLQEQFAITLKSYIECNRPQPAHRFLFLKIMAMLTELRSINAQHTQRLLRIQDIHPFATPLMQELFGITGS

plasma ET-1 = settings: healthy human subjects, 1, 3, 10 and 30 mg; cited from earlier work
[1] = Drug-drug interaction observations
CYP3A4 = CYP3A4 induction in human hepatocytes; format: in vitro ADME
rats = settings: cited from earlier work
[2] = cited from earlier work
[3] = Effect of macitentan on decrease in hemoglobin concentration, pooled Phase I studies, Emax model; format: in vivo, human; settings: healthy volunteers
Text: Hemoglobin measurements were pooled from 3 Phase I clinical studies in healthy volunteers:
Study AC-055-102: Investigation of the PK, PD, safety and tolerability of macitentan in male subjects (the study protocol is described in the following publication: Sidharta et al., Safety, tolerability, pharmacokinetics, and pharmacodynamics of macitentan, an endothelin receptor antagonist, in an ascending multiple-dose study in healthy subjects. J. Clin. Pharmacol. (2013), 53(11),1131-1138)
Study AC-055-116: Investigation of the PK, PD, safety and tolerability of macitentan in male Japanese subjects (the study protocol is described in the following publication: Yokoyama et al., Tolerability, Safety, Pharmacokinetics, and Pharmacodynamics of Macitentan, a New Endothelin Receptor Antagonist, in Healthy Japanese Male Subjects. Rinsho yakuri/Japanese Journal of Clinical Pharmacology and Therapeutics (2016), 47, 143-150) […]
Hemoglobin concentrations measured in the morning of Day 11 of macitentan treatment and at baseline on Day −1 were used in the analysis. […]

[4] = test system: ET receptors (ETA and ETB); settings: cited from earlier work

Row | Compound | effect on the pharmacokinetics of 1 mg rosuvastatin (BCRP transporters) | EC50 (human PXR) | plasma ET-1 concentrations at steady-state (plasma ET-1) | Drug-Drug Interaction [1] | CYP3A4 mRNA and enzyme activity (CYP3A4) | dose of maximal or near-maximal effect in rats (rats; EMA Assessment Report) | maximal effective dose in rats (rats; Iglarz 2014, Kunita-Takanezawa 2014) | time to steady state ([2]; humans, repeated administration) | absorption into the plasma ([2]; humans) | half-life in humans ([2]; humans) | dose at which effect on hemoglobin decrease plateaus ([3]; Day 11 vs baseline Day -1) | maximum effect on hemoglobin decrease (Emax) ([3]; Day 11 vs baseline Day -1, nonlinear regression) | time to peak plasma concentration ([2]; after the first dose of macitentan) | plasma concentrations relative to macitentan ([2]; humans) | affinity for the ET receptors relative to parent compound [4]
1 | CCCNS(=O)(=O)Nc1ncnc(OCCOc2ncc(Br)cn2)c1-c1ccc(Br)cc1 [macitentan, propylsulfamic acid [5-(4-bromo-phenyl)-6-[2-(5-bromo-pyrimidin-2-yloxy)-ethoxy]-pyrimidin-4-yl]-amide] | has not shown any effect | 1.1 to 1.2 µM | dose-dependent increase, with no further increase beyond the 10 mg oral dose | No Drug-Drug Interaction has been observed | concentration-dependent increases | 10 mg/kg | 30 mg/kg | steady state is reached by the third day of administration | absorbed slowly | about 16 hours | 10 mg | around 1.23 g/dL |  |  | 
2 | NS(=O)(=O)Nc1ncnc(OCCOc2ncc(Br)cn2)c1-c1ccc(Br)cc1 [ACT-132577] |  | 7.2 to 8.7 µM |  | No Drug-Drug Interaction has been observed | concentration-dependent increases |  |  |  |  | approximately 48 hours |  |  | about 30 hours | higher plasma concentrations than macitentan | lower affinity
